{"source": "patent US20090305890A1", "about": "“METHOD OF CONTROLLING PLANTS” (SYNGENTA LIMITED, priority 2005, published 2009)", "format_in_all_cases": "in vivo", "key": {"[1]": {"tested_on": "paraquat resistant ryegrass (Lolium rigidum)", "assay": "Glasshouse study, visual percentage control, Example 2", "conditions": "Paraquat Resistant Population, 28 days after applying", "procedure": "(§1) A glasshouse study was conducted with two biotypes of ryegrass (Lolium rigidum), one paraquat resistant and the other paraquat susceptible. The plants (3 leaf stage) were planted in pots at a density of approximately 14,000 plants/m^2 to simulate field infestation levels. The treatments were based on commercial formulations of paraquat and glufosinate were diluted in water including the adjuvants AMS (5%) and Agral 90 (0.25%). The treatments were applied to the plants in a spray volume equivalent to 400 lts/ha. Each treatment was replicated three times. The effectiveness of the treatments in controlling the plants was assessed visually 28 days after applying the herbicide. The assessment was made as a percentage control −0% representing no damage and 100% representing death of all the plants."}, "[2]": {"tested_on": "paraquat susceptible ryegrass (Lolium rigidum)", "assay": "Glasshouse study, visual percentage control, Example 2", "conditions": "Paraquat Susceptible Population, 28 days after applying", "procedure": "as §1"}, "[3]": {"tested_on": "paraquat resistant Lolium biotype RL 2", "assay": "Greenhouse visual assessment of percentage control, Example 1", "conditions": "14 days after applying", "procedure": "(§2) Aqueous herbicidal compositions comprising water and paraquat alone at various application rates, glufosinate ammonium alone at various application rates and compositions containing water and combinations of these two herbicides were applied over certain paraquat resistant plants. Ammonium sulphate was included in all of the compositions at a concentration of 1% w/v. The effectiveness of the composition in controlling the plants was assessed visually 14 days after applying the herbicide. The assessment was made as a percentage control −0% representing no damage and 100% representing death of all the plants. The plants used were two paraquat resistant Lolium biotypes (referred to as RL 1 and RL 2, collected in South Africa). The plants were grown in a greenhouse to the two-three true leaves stage before the herbicide was applied. Three replicates of each treatment were carried out.\n(§3) The results were analysed using the Colby formula which generates an expected level of control from the results obtained by using the individual components alone. This was compared with the actual level of control. The Colby formula predicts that the expected percentage level of control E for a particular combination of components is obtained as follows, in which P1 and P2 are the levels of control obtained by using the components alone\n(§4) The figures given in the Synergy column in the table below are the difference between the predicted level of control and the actual level of control. A figure of zero means that the actual result is as predicted by the Colby equation. Any number above zero represents evidence of synergy. Numbers below zero may represent antagonism."}, "[4]": {"tested_on": "paraquat resistant Lolium biotype RL 1", "assay": "Greenhouse visual assessment of percentage control, Example 1", "conditions": "14 days after applying", "procedure": "as §2, §3, §4"}, "[5]": {"tested_on": "paraquat resistant ryegrass (Lolium rigidum)", "assay": "Glasshouse test of sequential (split) application, visual percentage control, Example 3", "conditions": "28 days after the initial application", "procedure": "A glasshouse test was conducted to examine the effect of applying the products sequentially (ie. in a split application), using paraquat resistant ryegrass (Lolium rigidum) plants. The plants were planted in pots and at the time of the initial application they were at the 4½ leaf stage. The treatments were based on commercial formulations of paraquat and glufosinate were diluted in water including the adjuvants AMS (5%) and Agral 90 (0.25%). The treatments' were applied to the plants in a spray volume equivalent to 400 lts/ha. Each treatment was replicated 3 times. The effectiveness of the treatments in controlling the plants was assessed visually 28 days after the initial application date. The assessment was made as a percentage control −0% representing no damage and 100% representing death of all the plants."}, "[6]": {"conditions": "glufosinate ammonium 50 g/ha alone"}, "[7]": {"conditions": "glufosinate ammonium 100 g/ha alone"}, "[8]": {"conditions": "glufosinate ammonium 200 g/ha alone"}, "[9]": {"conditions": "glufosinate ammonium 400 g/ha alone"}, "[10]": {"conditions": "glufosinate ammonium 600 g/ha alone"}}, "data": [{"compound": "C[n+]1ccc(-c2cc[n+](C)cc2)cc1", "note": "[Paraquat, 1,1′-dimethyl-4,4′-bipyridylium cation]", "values": [{"measurement": "Percentage Control", "setting": "[1]; Paraquat 600 g ai/ha", "result": 29, "unit": "%"}, {"measurement": "Percentage Control", "setting": "[2]; Paraquat 600 g ai/ha", "result": 100, "unit": "%"}, {"measurement": "Average % control of RL 2", "setting": "[3]; paraquat 10 g/ha alone", "result": 0, "unit": "%"}, {"measurement": "Average % control of RL 2", "setting": "[3]; paraquat 20 g/ha alone", "result": 0, "unit": "%"}, {"measurement": "Average % control of RL 2", "setting": "[3]; paraquat 60 g/ha alone", "result": 0, "unit": "%"}, {"measurement": "Average % control of RL 2", "setting": "[3]; paraquat 80 g/ha alone", "result": 0, "unit": "%"}, {"measurement": "Average % control of RL 2", "setting": "[3]; paraquat 400 g/ha alone", "result": 0, "unit": "%"}, {"measurement": "Average % control of RL 2", "setting": "[3]; paraquat 1200 g/ha alone", "result": 7, "unit": "%"}, {"measurement": "Average % control of RL 2", "setting": "[3]; paraquat 2000 g/ha alone", "result": 3, "unit": "%"}, {"measurement": "Average % control of RL 2", "setting": "[3]; paraquat 4000 g/ha alone", "result": 42, "unit": "%"}, {"measurement": "Average % control of RL 1", "setting": "[4]; paraquat 10 g/ha alone", "result": 0, "unit": "%"}, {"measurement": "Average % control of RL 1", "setting": "[4]; paraquat 20 g/ha alone", "result": 0, "unit": "%"}, {"measurement": "Average % control of RL 1", "setting": "[4]; paraquat 60 g/ha alone", "result": 0, "unit": "%"}, {"measurement": "Average % control of RL 1", "setting": "[4]; paraquat 80 g/ha alone", "result": 17, "unit": "%"}, {"measurement": "Average % control of RL 1", "setting": "[4]; paraquat 400 g/ha alone", "result": 33, "unit": "%"}, {"measurement": "Average % control of RL 1", "setting": "[4]; paraquat 1200 g/ha alone", "result": 33, "unit": "%"}, {"measurement": "Average % control of RL 1", "setting": "[4]; paraquat 2000 g/ha alone", "result": 98, "unit": "%"}, {"measurement": "Average % control of RL 1", "setting": "[4]; paraquat 4000 g/ha alone", "result": 100, "unit": "%"}, {"measurement": "% Control", "setting": "[5]; 600 g ai/ha", "result": 58, "unit": "%"}]}, {"compound": "CP(=O)(O)CCC(N)C(=O)O", "note": "(racemic) [glufosinate ammonium, ammonium 4-[hydrox(methyl)phosphinoyl]-DL-homoalaninate]", "values": [{"measurement": "Percentage Control", "setting": "[1]; Glufosinate 300 g ai/ha", "result": 44, "unit": "%"}, {"measurement": "Percentage Control", "setting": "[2]; Glufosinate 300 g ai/ha", "result": 85, "unit": "%"}, {"measurement": "Average % control of RL 2", "setting": "[3]; [6]", "result": 0, "unit": "%"}, {"measurement": "Average % control of RL 2", "setting": "[3]; [7]", "result": 0, "unit": "%"}, {"measurement": "Average % control of RL 2", "setting": "[3]; [8]", "result": 2, "unit": "%"}, {"measurement": "Average % control of RL 2", "setting": "[3]; [9]", "result": 33, "unit": "%"}, {"measurement": "Average % control of RL 2", "setting": "[3]; [10]", "result": 89, "unit": "%"}, {"measurement": "Average % control of RL 1", "setting": "[4]; [6]", "result": 0, "unit": "%"}, {"measurement": "Average % control of RL 1", "setting": "[4]; [7]", "result": 0, "unit": "%"}, {"measurement": "Average % control of RL 1", "setting": "[4]; [8]", "result": 3, "unit": "%"}, {"measurement": "Average % control of RL 1", "setting": "[4]; [9]", "result": 2, "unit": "%"}, {"measurement": "Average % control of RL 1", "setting": "[4]; [10]", "result": 78, "unit": "%"}, {"measurement": "% Control", "setting": "[5]; 150 g ai/ha", "result": 0, "unit": "%"}, {"measurement": "% Control", "setting": "[5]; 200 g a/ha", "result": 33, "unit": "%"}, {"measurement": "% Control", "setting": "[5]; 300 g ai/ha", "result": 83, "unit": "%"}]}]}
